How the values were obtained:
[1] = molecular target: T1, hFASN enzyme (full length) (Homo sapiens, UniProt P49327); assay: Fatty Acid Synthase (FASN) Inhibition Scintillation Proximity Assay; assay type: biochemical; conditions: read-out: FASN % Effect @1E−05M
T1 construct: 10 μL hFASN enzyme (full length, 300 ng, purified in house); made in house
Summary of the method: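 Purified full-length human FASN (300 ng) incubated 60 min at room temperature with NADPH, [3H]-acetyl-CoA and malonyl-CoA in 100 mM KH2PO4 pH 7.5, 1 mM DTT; compound at 30 μM to 0.01 μM. [3H]-palmitate captured by SPA imaging beads; IC50 from 4-parameter fit, reported as pIC50.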

A2780 ovarian cells [2] = assay: A2780 Ovarian Cell Proliferation Assay in Lipid Reduced Medium, without Palmitate; assay type: cell-based; conditions: Homo sapiens, A2780; lipid reduced medium, without palmitate, 96 h, MTT; read-out: Proliferation A2780 w/o Palmitate pIC50 (converted)
Summary of the method: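 A2780 cells were seeded in 10% FCS medium and switched next day to 10% lipid-reduced serum without palmitate. Compounds at 0.01–30 μM were added with 0.2% DMSO, 0.2% fatty-acid-free BSA and 0.25% ethanol final. After 96 h, MTT absorbance at 544 nm was normalized to plate controls, and IC50/pIC50 came from a 4-parameter logistic fit.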

A2780 ovarian cells [3] = assay: A2780 Ovarian Cell Proliferation Assay in Lipid Reduced Medium, with Palmitate (control); assay type: cell-based; conditions: Homo sapiens, A2780; lipid reduced medium, 25 μM palmitate, 96 h, MTT; read-out: Proliferation A2780 with Palmitate pIC50 (converted)
Summary of the method: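 A2780 cells were seeded in RPMI1640 with 10% FCS, then switched next day to medium with 10% lipid-reduced serum. Compound was added with final 25 μM palmitate, 0.2% fatty-acid-free BSA and 0.2% DMSO, and incubated 96 h at 37 °C. Read-out was MTT absorbance at 544 nm; pIC50 = −log(IC50) from curve fit.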

[4] = tested on: LNCaP_Vancouver prostate cells; assay: In Vitro LNCaP Vancouver Prostate Cell Proliferation Assay in Lipid Reduced Medium; assay type: cell-based; conditions: lipid reduced serum, 96 h, read-out: Vancouver Cells pIC50 (converted)
Method: LNCaP_Vancouver prostate cells were obtained from the Vancouver Prostate Cancer Centre. Cells were maintained in RPMI-1640, 10% Fetal Calf Serum (FCS, Hyclone), 2 mM glutamine and 50 μg/ml Gentamicin.
For the proliferation experiment 1500 LNCaP_Vancouver cells per well were seeded in a 384-well black with clear bottom plate (costar 3712BC) in 40 μl RPMI-1640, 10% Lipid reduced serum (LRS, Hyclone), 50 μg/ml Gentamicin and 2 mM Glutamine and incubated at 37° C., 5% CO2. The next day 10 μl of test compound/DMSO diluted in medium was added (3E-5M, 1E-5M, 3E-6M, 1E-6M, 3E-7M, 1E-7M, 3E-8M, 1E-8M final concentration). Compounds were tested in duplicate. After 96 h incubation at 37° C., 5% CO2 25 μl ATP-glow mix was added. The plate was incubated for 30 min at 37° C. and luminescence was measured with the Envision.
(§1) pIC50 values were calculated as follows. Raw data generated by the instruments were normalized to % Controlmin values, which were calculated as: % Controlmin=100*(x−mLC)/(mHC−mLC),
(§2) where mLC and mHC are the means of the low control wells and high control wells on the plate, after manual exclusion of outliers. The relation between the % Controlmin values and concentration was fitted to a 4-parameter logistic curve using a non-linear least squares regression method to determine the pIC50 value. Outlying data points were excluded manually to get a correct fit. The pIC50 corresponds to −log 10(IC50), if the IC50 is expressed in molar units (http://www.ncbi.nlm.nih.gov/books/NBK91994). The IC50 parameter was always determined by non-linear regression, but one or more of the other parameters may have been held fixed on a relevant input value, such as 0 for the bottom values.
(§3) For dose response curves with FASN inhibitors in LNCaP_Vancouver or PC-3M-Luc_C6 cells the curves bottom out around 30 to 40% of the control value. A standard fit PL2, forcing the lower bound to this level was used.
(§4) Representative compounds of the present invention were tested according to the procedure as described in Biological Example 4a and 4b above, with results as listed in Table BIO-4, below.

[5] = tested on: PC-3M-Luc-C6 prostate cells; assay: In Vitro PC-3M-Luc-C6 Prostate Cell Proliferation Assay in Lipid Reduced Medium; assay type: cell-based; conditions: read-out: PC-3M-Luc-C6 Cells pIC50 (μM) (converted), lipid reduced serum, 96 h
Method: PC-3M-Luc-C6 prostate cells were obtained from Xenogen Corporation. Cells were maintained in MEM supplemented with 10% Fetal Calf Serum (FCS, Hyclone), 2 mM glutamine, 1 mM sodium pyruvate, 1% BME vitamins (available from for example, Sigma Aldrich), 0.1 mM non Essential Amino Acid and 50 μg/ml Gentamicin. The cells were passaged twice a week.
1000 PC-3M-Luc-C6 prostate cells (Xenogen) were seeded in a 384-well black with clear bottom plate (costar 3712BC) in 40 μl MEM, 10% LRS (Hyclo ne), 50 μg/ml Gentamicin, 2 mM Glutamine, 1 mM Sodium pyruvaat, 1% BME vitamins and 0.1 mM non Essential Amino Acid and incubated at 37° C., 5% CO2. The next day 10 μl test compound/DMSO diluted in medium was added (3E-5M, 1E-5M, 3E-6M, 1E-6M, 3E-7M, 1E-7M, 3E-8M, 1E-8M final concentration). Compounds were tested in duplicate. After 96 h incubation at 37° C., 5% CO2 25 μl ATP-glow mix was added. The plate was incubated for 30 min at 37° C. and luminescence was measured with the Envision.
as §1, §2, §3, §4

T1 sequence (P49327 whole entry): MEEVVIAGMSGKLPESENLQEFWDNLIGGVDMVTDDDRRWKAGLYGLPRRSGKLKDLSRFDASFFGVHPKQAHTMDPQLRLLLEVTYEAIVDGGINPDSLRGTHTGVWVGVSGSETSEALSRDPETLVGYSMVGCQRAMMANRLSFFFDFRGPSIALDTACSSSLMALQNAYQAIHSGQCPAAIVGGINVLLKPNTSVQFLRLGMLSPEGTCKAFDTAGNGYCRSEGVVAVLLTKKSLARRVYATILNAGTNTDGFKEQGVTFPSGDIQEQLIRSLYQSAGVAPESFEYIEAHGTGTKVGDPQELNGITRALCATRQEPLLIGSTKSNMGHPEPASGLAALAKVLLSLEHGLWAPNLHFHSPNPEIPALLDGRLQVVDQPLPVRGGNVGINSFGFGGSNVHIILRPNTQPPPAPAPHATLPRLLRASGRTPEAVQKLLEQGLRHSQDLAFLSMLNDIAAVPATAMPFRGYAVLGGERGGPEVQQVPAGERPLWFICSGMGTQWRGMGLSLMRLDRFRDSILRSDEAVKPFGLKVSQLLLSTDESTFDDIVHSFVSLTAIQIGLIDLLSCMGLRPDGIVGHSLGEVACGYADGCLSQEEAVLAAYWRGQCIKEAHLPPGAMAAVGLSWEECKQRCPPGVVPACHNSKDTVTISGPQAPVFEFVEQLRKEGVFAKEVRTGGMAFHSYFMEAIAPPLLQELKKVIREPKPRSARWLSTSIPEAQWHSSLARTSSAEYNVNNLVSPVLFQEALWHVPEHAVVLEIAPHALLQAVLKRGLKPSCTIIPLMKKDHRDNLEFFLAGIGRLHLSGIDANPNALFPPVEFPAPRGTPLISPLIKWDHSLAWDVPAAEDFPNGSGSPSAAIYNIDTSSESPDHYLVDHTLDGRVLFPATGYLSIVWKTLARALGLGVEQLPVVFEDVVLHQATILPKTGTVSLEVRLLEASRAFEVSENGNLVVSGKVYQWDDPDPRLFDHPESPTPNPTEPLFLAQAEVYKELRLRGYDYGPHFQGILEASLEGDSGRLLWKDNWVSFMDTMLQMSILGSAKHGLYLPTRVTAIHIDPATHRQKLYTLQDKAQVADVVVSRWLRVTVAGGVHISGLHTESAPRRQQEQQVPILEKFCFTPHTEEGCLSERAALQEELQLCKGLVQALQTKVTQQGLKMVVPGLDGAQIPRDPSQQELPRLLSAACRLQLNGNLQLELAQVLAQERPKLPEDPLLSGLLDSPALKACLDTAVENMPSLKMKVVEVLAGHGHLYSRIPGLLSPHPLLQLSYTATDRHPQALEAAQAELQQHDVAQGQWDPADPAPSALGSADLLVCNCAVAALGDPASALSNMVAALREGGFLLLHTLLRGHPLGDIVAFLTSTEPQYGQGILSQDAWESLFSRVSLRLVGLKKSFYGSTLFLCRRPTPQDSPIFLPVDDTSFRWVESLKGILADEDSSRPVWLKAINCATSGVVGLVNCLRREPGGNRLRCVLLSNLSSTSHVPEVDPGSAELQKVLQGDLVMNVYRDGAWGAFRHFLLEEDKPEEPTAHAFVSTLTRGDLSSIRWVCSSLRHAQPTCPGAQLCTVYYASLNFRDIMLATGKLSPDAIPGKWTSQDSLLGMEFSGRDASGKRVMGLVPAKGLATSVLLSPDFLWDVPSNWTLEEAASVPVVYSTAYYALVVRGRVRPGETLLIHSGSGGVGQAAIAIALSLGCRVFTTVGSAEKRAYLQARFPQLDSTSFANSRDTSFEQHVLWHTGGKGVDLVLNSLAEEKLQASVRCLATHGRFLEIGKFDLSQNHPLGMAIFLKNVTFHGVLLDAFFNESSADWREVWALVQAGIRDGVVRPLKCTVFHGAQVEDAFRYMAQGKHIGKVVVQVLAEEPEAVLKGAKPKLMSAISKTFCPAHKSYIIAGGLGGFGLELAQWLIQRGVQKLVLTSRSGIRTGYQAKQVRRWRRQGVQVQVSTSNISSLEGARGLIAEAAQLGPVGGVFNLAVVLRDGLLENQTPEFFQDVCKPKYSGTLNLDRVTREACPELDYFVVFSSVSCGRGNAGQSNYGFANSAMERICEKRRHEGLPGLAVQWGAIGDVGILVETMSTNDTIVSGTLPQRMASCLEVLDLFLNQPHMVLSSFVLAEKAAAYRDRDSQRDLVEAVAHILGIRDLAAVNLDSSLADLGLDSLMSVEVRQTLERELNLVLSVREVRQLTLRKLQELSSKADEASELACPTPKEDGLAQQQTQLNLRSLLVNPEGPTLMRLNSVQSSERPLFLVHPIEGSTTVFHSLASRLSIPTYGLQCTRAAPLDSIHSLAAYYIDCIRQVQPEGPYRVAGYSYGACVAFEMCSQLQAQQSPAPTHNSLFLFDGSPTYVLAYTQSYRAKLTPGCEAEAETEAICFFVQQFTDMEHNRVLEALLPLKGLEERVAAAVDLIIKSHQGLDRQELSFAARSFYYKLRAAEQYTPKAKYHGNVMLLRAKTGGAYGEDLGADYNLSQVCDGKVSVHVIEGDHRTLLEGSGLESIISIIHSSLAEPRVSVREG

inhibition at 10 µM [1]: 98% | IC50 (A2780 ovarian cells [2]): 0.182 µM | IC50 (A2780 ovarian cells [3]): > 10 µM | IC50 [4]: 2.19 µM | IC50 [5]: 0.269 µM
Structure (SMILES): CN(C)c1ccc(C(=O)N2CCC(c3ccc(-c4cnn(C)c4)cc3)CC2)cc1NC(=O)C1CC1 [Compound #273, N-(2-(dimethylamino)-5-(4-(4-(1-methyl-1H-pyrazol-4-yl)phenyl)piperidine-1-carbonyl)phenyl)cyclopropanecarboxamide]

Reference: patent publication US9562035B2, “Benzamide derivative useful as FASN inhibitors for the treatment of cancer” (Janssen Pharmaceutica NV, priority 2013, dated 2017)
